Data as given in PubChem BioAssay AID334 (DTP/NCI, 2004).
Where “and” joins values, the source holds several entries; their conditions need not be identical. Equal values may be shown once. Inconclusive results and toxic doses are left out.

Tested on: CD2F1 mice, intracerebral P388 leukemia, median survival T/C%
Assay: NCI In Vivo Anticancer Drug Screen. Data for tumor model P388 Leukemia (intracerebral) in CD2F1 (CDF1) mice
Conditions: endpoint: median survival time, higher = longer survival
Description: The antitumor activity of compounds was measured in mice bearing transplantable tumors. Survival or tumor size were measured and the results are expressed as the measurement made in the treated group (T) divided by the measurement made in the vehicle treated control group (C). The tumor model used in this assay is P388 Leukemia (intracerebral) in CD2F1 (CDF1) mice

[1] = dose: 12.5 mg/kg/injection, schedule: Q01DX009 (ip), vehicle: saline
[2] = dose: 25.0 mg/kg/injection, schedule: Q01DX009 (ip), vehicle: saline
[3] = dose: 50.0 mg/kg/injection, schedule: Q01DX009 (ip), vehicle: saline

Question: CC1(C)N=C(N)N=C(N)N1c1ccc(CCC(=O)Nc2ccc(S(=O)(=O)F)cc2)c(Cl)c1 was tested. Which T/C (dose: 6.25 mg/kg/injection, schedule: Q01DX009 (ip), vehicle: saline) did it give?
Answer: 100 % of control

Question: What about the T/C [1] of the same compound?
Answer: 111 % of control

Question: And the T/C [2]?
Answer: 105 % of control

Question: And the T/C [3]?
Answer: 105 % of control

Question: What does the source list for N=C(N)SCc1c2ccccc2c(CSC(=N)N)c2ccccc12?
Answer: T/C (dose: 2.5 mg/kg/injection, schedule: Q01DX005 (ip), vehicle: Klucel (hydroxypropylcellulose) (HPC)): 93 % of control and 96 % of control; T/C (dose: 5.0 mg/kg/injection, schedule: Q01DX005 (ip), vehicle: Klucel (hydroxypropylcellulose) (HPC)): 97 % of control and 104 % of control; T/C (dose: 10.0 mg/kg/injection, schedule: Q01DX005 (ip), vehicle: Klucel (hydroxypropylcellulose) (HPC)): 97 % of control and 101 % of control; T/C (dose: 20.0 mg/kg/injection, schedule: Q01DX005 (ip), vehicle: Klucel (hydroxypropylcellulose) (HPC)): 96 % of control and 104 % of control

Question: Which T/C (dose: 1.25 mg/kg/injection, schedule: Q01DX005 (iv), vehicle: clinical formulation) does the source give for O=C1NC2(CCCCC2)C(=O)N1CCN(CCCl)CCCl here?
Answer: 112 % of control

Question: What about the T/C (dose: 1.25 mg/kg/injection, schedule: Q01DX009 (ip), vehicle: clinical formulation) of the same compound?
Answer: 103 % of control

Question: And the T/C (dose: 1.25 mg/kg/injection, schedule: Q01DX009 (ip), vehicle: saline with Tween-80)?
Answer: 98 % of control

Question: What about the T/C (dose: 1.5 mg/kg/injection, schedule: Q01DX009 (ip), vehicle: saline) of the same compound?
Answer: 107 % of control

Question: And the T/C (dose: 2.5 mg/kg/injection, schedule: Q01DX005 (iv), vehicle: clinical formulation)?
Answer: 106 % of control

Question: What about the T/C (dose: 2.5 mg/kg/injection, schedule: Q01DX009 (ip), vehicle: clinical formulation) of the same compound?
Answer: 101 % of control

Question: What about the T/C (dose: 2.5 mg/kg/injection, schedule: Q01DX009 (ip), vehicle: saline with Tween-80) of the same compound?
Answer: 110 % of control

Question: What about the T/C (dose: 5.0 mg/kg/injection, schedule: Q01DX005 (iv), vehicle: clinical formulation) of the same compound?
Answer: 160 % of control

Question: And the T/C (dose: 5.0 mg/kg/injection, schedule: Q01DX009 (ip), vehicle: clinical formulation)?
Answer: 103 % of control

Question: And the T/C (dose: 5.0 mg/kg/injection, schedule: Q01DX009 (ip), vehicle: saline with Tween-80)?
Answer: 112 % of control

Question: And the T/C (dose: 6.0 mg/kg/injection, schedule: Q01DX009 (ip), vehicle: saline)?
Answer: 117 % of control

Question: What about the T/C (dose: 10.0 mg/kg/injection, schedule: Q01DX009 (ip), vehicle: saline with Tween-80) of the same compound?
Answer: 124 % of control

Question: What about the T/C (dose: 20.0 mg/kg/injection, schedule: Q01DX009 (ip), vehicle: saline with Tween-80) of the same compound?
Answer: 103 % of control

Question: Which results are given for CCCCCCOC(=O)C(N)Cc1ccc(N(CCCl)CCCl)cc1 (configuration not stated)?
Answer: T/C (dose: 1.6 mg/kg/injection, schedule: Q03HX008 (ip), vehicle: saline): 105 % of control; T/C (dose: 3.2 mg/kg/injection, schedule: Q03HX008 (ip), vehicle: saline): 115 % of control; T/C (dose: 6.4 mg/kg/injection, schedule: Q03HX008 (ip), vehicle: saline): 110 % of control

Question: Which T/C (dose: 100.0 mg/kg/injection, schedule: Q01DX005 (ip), vehicle: Klucel (hydroxypropylcellulose) (HPC)) does the source give for CC(=O)NNC(=O)c1ccccn1 here?
Answer: 116 % of control and 100 % of control

Question: And the T/C (dose: 200.0 mg/kg/injection, schedule: Q01DX005 (ip), vehicle: Klucel (hydroxypropylcellulose) (HPC))?
Answer: 113 % of control and 100 % of control

Question: C#C[C@]1(O)CC[C@H]2[C@@H]3CCc4cc(O)ccc4[C@H]3CC[C@@]21C was tested. Which T/C (dose: 8.0 mg/kg/injection, schedule: Q01DX009 (ip), vehicle: Klucel (hydroxypropylcellulose) (HPC)) did it give?
Answer: 90 % of control and 100 % of control

Question: And the T/C (dose: 16.0 mg/kg/injection, schedule: Q01DX009 (ip), vehicle: Klucel (hydroxypropylcellulose) (HPC))?
Answer: 94 % of control and 104 % of control

Question: What about the T/C (dose: 16.0 mg/kg/injection, schedule: Q01DX009 (ip), vehicle: saline with Tween-80) of the same compound?
Answer: 95 % of control

Question: And the T/C (dose: 32.0 mg/kg/injection, schedule: Q01DX009 (ip), vehicle: Klucel (hydroxypropylcellulose) (HPC))?
Answer: 100 % of control and 101 % of control

Question: And the T/C (dose: 32.0 mg/kg/injection, schedule: Q01DX009 (ip), vehicle: saline with Tween-80)?
Answer: 100 % of control

Question: What about the T/C (dose: 64.0 mg/kg/injection, schedule: Q01DX009 (ip), vehicle: Klucel (hydroxypropylcellulose) (HPC)) of the same compound?
Answer: 94 % of control and 100 % of control

Question: And the T/C (dose: 64.0 mg/kg/injection, schedule: Q01DX009 (ip), vehicle: saline with Tween-80)?
Answer: 95 % of control

Question: And the T/C (dose: 128.0 mg/kg/injection, schedule: Q01DX009 (ip), vehicle: Klucel (hydroxypropylcellulose) (HPC))?
Answer: 99 % of control and 102 % of control

Question: And the T/C (dose: 256.0 mg/kg/injection, schedule: Q01DX009 (ip), vehicle: Klucel (hydroxypropylcellulose) (HPC))?
Answer: 95 % of control and 100 % of control

Question: And the T/C (dose: 512.0 mg/kg/injection, schedule: Q01DX009 (ip), vehicle: Klucel (hydroxypropylcellulose) (HPC))?
Answer: 86 % of control and 99 % of control

Question: What about the T/C (dose: 512.0 mg/kg/injection, schedule: Q01DX009 (ip), vehicle: saline with Tween-80) of the same compound?
Answer: 103 % of control

Question: Which results are given for CC1(C)N=C(N)N=C(N)N1c1ccc(CNC(=O)Nc2cccc(S(=O)(=O)F)c2)cc1?
Answer: T/C (dose: 150.0 mg/kg/injection, schedule: Q04DX003 (ip), vehicle: saline): 122 % of control; T/C (dose: 225.0 mg/kg/injection, schedule: Q04DX003 (ip), vehicle: saline): 116 % of control

Question: For CCCCCCCC/C=C/CCCCCCCC(=O)Nc1ccn(C2OC(CO)C(O)C2O)c(=O)n1 (configuration not stated), which T/C [1] is on record?
Answer: 155 % of control

Question: What about the T/C [2] of the same compound?
Answer: 197 % of control

Question: What about the T/C [3] of the same compound?
Answer: 262 % of control
